Experimental data: ChEMBL document CHEMBL3259605, “Improving the Pharmacokinetics of GPR40/FFA1 Full Agonists” (ACS Med Chem Lett, 2014)
Activity calls are given as the source filed them. The calls are words filed in the database; no cut-off is given here.

How the values were obtained:
[1] = biological target: T1, Free fatty acid receptor 1 (Homo sapiens, UniProt O14842); test: Agonist activity at GPR40 (unknown origin) expressed in mouse A9 cells assessed as inositol phosphate accumulation using [myo-3H]inositol after 1 hr by scintillation counting in presence of 0.3% human serum albumin; format: functional, cell-based
T1 sequence (O14842 whole entry): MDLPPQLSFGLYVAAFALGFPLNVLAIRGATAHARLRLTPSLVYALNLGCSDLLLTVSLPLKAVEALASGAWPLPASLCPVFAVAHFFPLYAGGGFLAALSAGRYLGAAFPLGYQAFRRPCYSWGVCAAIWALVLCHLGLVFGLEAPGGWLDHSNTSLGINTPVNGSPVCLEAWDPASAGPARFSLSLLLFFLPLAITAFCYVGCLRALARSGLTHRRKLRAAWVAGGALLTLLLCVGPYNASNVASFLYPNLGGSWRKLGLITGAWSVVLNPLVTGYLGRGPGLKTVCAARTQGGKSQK

[2] = biological target: T1, Free fatty acid receptor 1; test: Agonist activity at GPR40 (unknown origin) expressed in mouse A9 cells assessed as inositol phosphate accumulation using [myo-3H]inositol after 1 hr by scintillation counting in presence of 0.3% human serum albumin relative to AM-1638; format: functional, cell-based
[3] = biological target: T1, Free fatty acid receptor 1; test: Agonist activity at GPR40 (unknown origin) expressed in CHO cells assessed as luminescence for 20 seconds interval by aequorin assay in presence of 0.01% human serum albumin; format: cell-based
[4] = biological target: T1, Free fatty acid receptor 1; test: Agonist activity at GPR40 (unknown origin) expressed in CHO cells assessed as luminescence for 20 seconds interval by aequorin assay in presence of 0.01% human serum albumin relative to AM-1638; format: cell-based
[5] = Clearance in rat at 0.5 mg/kg, iv; format: ADME, organism-based; set-up: dose 0.5 mg/kg, route intravenous; details: in vivo
[6] = Half life in rat at 0.5 mg/kg, iv; format: ADME, organism-based; set-up: dose 0.5 mg/kg, route intravenous; details: in vivo
[7] = Oral bioavailability in rat at 2 mg/kg; format: ADME, organism-based; details: in vivo
[8] = Intrinsic clearance in human liver microsomes at 1 uM after 30 mins; format: ADME; details: read-out: CLH
[9] = Intrinsic clearance in rat liver microsomes at 1 uM after 30 mins; format: ADME; details: read-out: CLH
Mus musculus [10] = test: Antidiabetic activity in diet-induced obesity BDF1 mouse model assessed as reduction of blood glucose level at 0.3 mg/kg, po up to 120 mins by oral glucose tolerance test; format: functional, organism-based; set-up: dose 0.3 mg/kg
Mus musculus [11] = test: Antidiabetic activity in diet-induced obesity BDF1 mouse model assessed as reduction of blood glucose level at 3 mg/kg, po up to 120 mins by oral glucose tolerance test; format: functional, organism-based; set-up: dose 3 mg/kg
Mus musculus [12] = test: Antidiabetic activity in diet-induced obesity BDF1 mouse model assessed as reduction of blood glucose level at 3 to 10 mg/kg, po up to 120 mins by oral glucose tolerance test; format: functional, organism-based
Mus musculus [13] = test: Antidiabetic activity in diet-induced obesity BDF1 mouse model assessed as reduction of blood glucose level at 30 mg/kg, po up to 120 mins by oral glucose tolerance test; format: functional, organism-based; set-up: dose 30 mg/kg
Mus musculus [14] = test: Antidiabetic activity in po dosed high fat fed C57/Bl6 mouse streptozotocin-induced type 2 diabetic model assessed as reduction of blood glucose level up to 120 mins by oral glucose tolerance test; format: functional, organism-based
Mus musculus [15] = test: Antidiabetic activity in high fat fed C57/Bl6 mouse streptozotocin-induced type 2 diabetic model assessed as reduction of blood glucose level at 30 mg/kg, po up to 120 mins by oral glucose tolerance test; format: functional, organism-based; set-up: dose 30 mg/kg
Mus musculus [16] = test: Induction of GLP-1 release in po dosed high fat fed C57/Bl6 mouse streptozotocin-induced type 2 diabetic model; format: functional, organism-based
Mus musculus [17] = test: Antidiabetic activity in high fat fed C57/Bl6 mouse streptozotocin-induced type 2 diabetic model assessed as reduction of blood glucose level at 60 mg/kg, po up to 120 mins by oral glucose tolerance test; format: functional, organism-based; set-up: dose 60 mg/kg

SMILES	EC50 [1] [nM]	Emax [2] [%]	EC50 [3] [nM]	Emax [4] [%]	clearance [5] [mL/min/kg]	half-life [6] [h]	bioavailability [7] [%]	also measured
CC[C@H](CC(=O)O)c1ccnc(OCc2ccc(-c3cc(OC)ncc3F)c([C@@H]3CCCC3(C)C)c2)c1	6	102	150	99	2.5	8.2	83	
COc1cc(-c2ccc(COc3cc([C@@H](CC(=O)O)C4CC4)ccn3)cc2[C@@H]2CCCC2(C)C)c(F)cn1	1.7	100	108	110	1.43	9.7	37	
CCC[C@H](CC(=O)O)c1cccc(OCc2ccc(-c3cccc(OC)n3)c(C(C)(C)C)c2)c1			3700	61				
CCO[C@@H](c1cc(COc2cccc([C@@H](CC(=O)O)C3CC3)c2)ccc1-c1cc(OC)ccc1F)C(C)(C)C			114	101	5.33	3.9		
COc1cc(-c2ccc(COc3cc4c(cn3)CC[C@]43C[C@H]3C(=O)O)cc2[C@H](OC)C(C)(C)C)c(F)cn1	370	122	250	85	28.3	1.2		
COc1ccc(F)c(-c2ccc(COc3cccc([C@@H](CC(=O)O)C4CC4)c3)cc2[C@@H]2OCCCC2(C)C)c1			227	96				
COc1cc(-c2ccc(COc3cccc([C@@H](CC(=O)O)C4CC4)c3)cc2C2=CCCC2(C)C)c(F)cn1			120	100				
COc1ccc(F)c(-c2ccc(COc3cccc([C@@H](CC(=O)O)C4CC4)c3)cc2[C@@H]2CCCC2(C)C)c1			76	101	11.7	2	34	microsomal CLint at 1 µM [8]: 52 µL/min/mg; microsomal CLint at 1 µM [9]: 219 µL/min/mg
COc1cc(-c2ccc(COc3cc([C@@H](CC(=O)O)C4CC4)ccn3)cc2[C@H](OC)C(C)(C)C)c(F)cn1	0.6	100	162	94	1.02	8.1	54	Activity (Mus musculus [10]): Active; Activity (Mus musculus [11]): Active; Activity (Mus musculus [12]): Active
CCC[C@H](CC(=O)O)c1cccc(OCc2ccc(-c3cncc(OC)c3)c(C(C)(C)C)c2)c1			30000	72				
COc1cc(-c2ccc(COc3cccc([C@@H](CC(=O)O)C4CC4)c3)cc2[C@@H]2CCCC2(C)C)c(F)cn1			68	95	1.67	3.5	34	microsomal CLint at 1 µM [8]: 21 µL/min/mg; microsomal CLint at 1 µM [9]: 67 µL/min/mg
COc1cc(-c2ccc(COc3ccc4c(c3)[C@@](C)(CC(=O)O)CC4)cc2[C@H](OC)C(C)(C)C)c(F)cn1	6.7	101	235	106	4.17	4	21	
COc1ccc(F)c(-c2ccc(COc3cccc([C@@H](CC(=O)O)C4CC4)c3)cc2CC(C)(C)C)c1			88	102	20	1.2		
CCC[C@H](CC(=O)O)c1cccc(OCc2ccc(-c3cccc(OC)c3)c(C(C)(C)C)c2)c1			370	94				
COc1cc(-c2ccc(COc3ccc4c(c3)[C@@](C)(CC(=O)O)CC4)cc2[C@@H]2CCCC2(C)C)c(F)cn1	3.4	100	128	100	7.5	3.7	10	
COc1cc(-c2ccc(COc3cccc([C@@H](CC(=O)O)C4CC4)c3F)cc2[C@@H]2CCCC2(C)C)c(F)cn1			93	102	2.83	4.6	98	Activity (Mus musculus [13]): Active; microsomal CLint at 1 µM [8]: 15 µL/min/mg; microsomal CLint at 1 µM [9]: 52 µL/min/mg; Activity (Mus musculus [14]): Dose-dependent effect; Activity (Mus musculus [15]): Active; Activity (Mus musculus [16]): Dose-dependent effect
COc1ccc(F)c(-c2ccc(COc3cccc([C@@H](CC(=O)O)C4CC4)c3)cc2[C@H](OC)C(C)(C)C)c1			147	105	4.67	3.5		
COc1cc(-c2ccc(COc3cc([C@H](C)CC(=O)O)ccn3)cc2[C@@H]2CCCC2(C)C)c(F)cn1	19	100	281	136				
COc1cc(-c2ccc(COc3cc4c(cn3)CC[C@]43C[C@H]3C(=O)O)cc2[C@@H]2CCCC2(C)C)c(F)cn1	22	97	249	98	4.33	3.6	58	
COc1ccc(F)c(-c2ccc(COc3cccc([C@@H](CC(=O)O)C4CC4)c3)cc2C2=CCCC2(C)C)c1								Activity (Mus musculus [17]): Active
COc1ccc(F)c(-c2ccc(COc3cccc([C@@H](CC(=O)O)C4CC4)c3)cc2[C@H](F)C(C)(C)C)c1			105	100				
COc1ccc(F)c(-c2ccc(COc3cccc([C@@H](CC(=O)O)C4CC4)c3)cc2[C@@H](OC)C(C)(C)C)c1			1410	98				
